Read-outs that look alike come from different tables or passages of the source.
Tests used:
[1] = In vivo pharmacokinetic study, intravenous bolus; details: rat, 1 mg/kg intravenous bolus; for AUC / AUC(0-inf) / clearance / Tmax / Vd / Cmax / half-life: male, Hans Wistar
Procedure: Male Hans Wistar rats were purchased from Charles River Laboratories UK. During the acclimatisation period the rats were group housed in cages of three and maintained under a 12 hour light/dark cycle with free access to food and water. Temperature and humidity were controlled according to UK Home Office regulations.
All compounds were formulated immediately prior to dosing in 10% DMSO, 20% Cremophor EL, 70% saline to provide 1 mg/ml solutions. Each rat received a weight corrected dose of formulated drug at 1 mg/kg administered by intravenous bolus injection via a lateral tail vein.
Terminal plasma and brain samples were collected from n=3 animals at specified time points (0.017, 0.083, 0.25, 0.5, 1, 2, 4 and 6 hours following dose administration).
Drug quantification was performed using liquid chromatography-tandem mass spectrometry using electrospray ionisation. Pharmacokinetic parameters were calculated using Phoenix WinNonlin software.

[2] = test system: secreted IL-1β in THP-1 monocytic cells; assay: IL-1β dose-response testing in THP-1 monocytic cell line; format: cell-based; details: Homo sapiens; THP-1 treated with interferon-γ and lipopolysaccharide 3 hours, compound 1-1000 nM, ATP stimulation; read-out: LogEC50, secreted IL-1β (converted)
Procedure: Supernatant was collected to measure the level of secreted IL-1β.
Cells were plated in 48-well Corning cell-bind plates at 2×10^5 cells/well, and treated with recombinant human interferon-γ (10 ng/mL) and lipopolysaccharide (25 ng/mL) for 3 hours. […] Supernatant was collected to measure the level of secreted IL-1ß.
(§1) Changes in secreted and intracellular levels of IL-1β were measured by ELISA (RnD systems). Samples were diluted 1 in 2 in commercial diluent, assayed according to manufacturer's instructions and detected at 450/570 nm.

[3] = test system: ATP-induced IL-1β secretion in PBMCs; assay: IL-1β ELISA in patient-derived PBMCs/monocytes (STEMI and controls); format: cell-based, human; details: pre-incubated with 1 μmol/L compound
From the text: The role of inflammation in cardiovascular disease processes was explored. Patients that were admitted to the Royal North Shore Hospital, Sydney, Australia for clinically indicated cardiac catheterisation were consented for the study. These patients were subdivided according to their clinical presentation: • 1. Patients presenting with STEMI, characterised by recent-onset chest pain, ECG changes and/or raised cardiac enzymes. • 2. Age and sex-matched control patients with no evidence of coronary stenosis on angiography.
Patients were excluded from the study if they were taking anti-inflammatory medications, or if they had clinical or biochemical evidence of active infection or inflammation.
20 mL of blood was collected from the arterial sheath into an EDTA-coated tube. Samples were immediately diluted 1:1 in phosphate buffered saline (PBS) and layered on top of Ficoll-Paque for gradient separation. Samples were centrifuged at […] for 15 minutes. […]
as §1
Peripheral blood mononuclear cells (PBMCs) were collected from 19 STEMI patients at the time of infarct, and 3 healthy controls. […] IL-1β levels were measured by ELISA.

CYP2C19 = biological target: T1, CYP2C19 (Homo sapiens, UniProt P33261); assay: Cytochrome profiling CYP2C19 (baculosomes); format: in vitro ADME; details: probe fluorogenic probe substrate (not named), 10 μM substrate
T1 construct: host or cells: insect cells infected with recombinant baculovirus (microsomes)
From the text: Cytochrome P450 (abbreviated CYP, P450 or CYP450) belong to very large and diverse superfamily of haemoproteins which accept both exogenous and endogenous compounds as substrates in enzymatic reactions and play a major role in drug metabolism. Although this class has more than 50 enzymes just 5 of them (CYP1A2, CYP2C9, CYP2C19, CYP2D6 and CYP3A4) are able to metabolise almost 90% of all drugs. Inhibition of these enzymes is one of the major reasons for drug-drug interactions. Consequently, detailed CYP inhibition profiles are a regulatory requirement for all new drugs. Inhibition potencies against the five most relevant CYP isoforms is performed using baculosomes; microsomes prepared from insect cells infected with recombinant baculovirus containing cDNA for a specific human P450 isozyme. The baculosomes are incubated with drug at a concentration of 1 μM in the presence of a probe substrate for 60 minutes at 37° C. The probe is normally metabolised by the baculosomes to produce a fluorescent metabolite. A substrate drug will compete for the isozyme and reduce the metabolism of the probe resulting in a decrease in the fluorescent signal. The percent inhibition due to the presence of the test compound is calculated using the following equation: [formula] • X=fluorescent intensity observed in the presence of test compound • A=fluorescent intensity observed in control • B=fluorescent intensity observed in the presence of the probe control

[4] = brain, read-out: T1/2 Brain (converted)
[5] = plasma, read-out: T1/2 Plasma (converted)

T1 sequence (P33261 whole entry): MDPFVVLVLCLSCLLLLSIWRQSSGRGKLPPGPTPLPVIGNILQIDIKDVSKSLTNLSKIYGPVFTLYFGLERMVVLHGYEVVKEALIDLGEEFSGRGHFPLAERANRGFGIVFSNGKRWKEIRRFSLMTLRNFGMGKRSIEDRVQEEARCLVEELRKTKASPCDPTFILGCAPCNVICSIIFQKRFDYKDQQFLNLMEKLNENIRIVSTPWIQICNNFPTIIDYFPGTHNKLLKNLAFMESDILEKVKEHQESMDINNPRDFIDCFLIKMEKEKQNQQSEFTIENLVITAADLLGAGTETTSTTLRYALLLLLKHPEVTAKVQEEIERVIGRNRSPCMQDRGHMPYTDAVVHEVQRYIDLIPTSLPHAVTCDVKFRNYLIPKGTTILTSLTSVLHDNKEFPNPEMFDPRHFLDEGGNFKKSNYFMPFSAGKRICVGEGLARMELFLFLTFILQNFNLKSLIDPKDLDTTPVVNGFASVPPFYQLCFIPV

Row | SMILES | AUC ([1]; brain, read-out: AUC6 Brain) [ng·h/mL] | AUC(0-inf) ([1]; brain, read-out: AUC∞ Brain) [ng·h/mL] | clearance ([1]; brain, read-out: Cl Brain) [mL/min/kg] | Tmax ([1]; brain, read-out: Tmax Brain) [min] | Vd ([1]; brain, read-out: Vd Brain) [L/kg] | Cmax ([1]; plasma) [ng/mL] | AUC ([1]; plasma, read-out: AUC6 Plasma) [ng·h/mL] | AUC(0-inf) ([1]; plasma, read-out: AUC∞ Plasma) [ng·h/mL] | clearance ([1]; plasma, read-out: Cl Plasma) [mL/min/kg] | Tmax ([1]; plasma, read-out: Tmax Plasma) [min] | Vd ([1]; plasma, read-out: Vd Plasma) [L/kg] | Cmax Brain ([1]; brain) [ng/mL] | T1/2 Brain ([1]; brain) [min] | T1/2 Plasma ([1]; plasma) [min] | EC50 [2] [nM] | secreted IL-1β after ATP stimulation, STEMI PBMCs ([3]; STEMI patients' PBMCs) | secreted IL-1β after ATP stimulation, control PBMCs ([3]; healthy controls' PBMCs) | inhibition at 60 min, 1 μM (CYP2C19) [%] | half-life [1, 4] [min] | half-life [1, 5] [min]
1 | COc1ccc(Cl)c(C(=O)NCC23CC4(F)CC(F)(CC(F)(C4)C2)C3)c1 [Compound 1, 2-Chloro-N-((3,5,7-trifluoroadamantan-1-yl)methyl)-5-methoxybenzamide] | 380 | 386 | 43.2 | 1.2 | 2.1 | 1290 | 385 | 399 | 41.8 | 1.2 | 2.75 | 1464 | 75.6 | 103 | 8.53 | 13.9±2.4 | 7.5±2.8 | 12.9 | – | –
2 | COc1ccc(Cl)c(C(=O)NCC23CC4CC(F)(CC(F)(C4)C2)C3)c1 [Compound 2, 2-Chloro-N-((3,5-difluoroadamantan-1-yl)methyl)-5-methoxybenzamide] | 209 | 217 | 76.9 | 1.2 | 1.54 | 1720 | 196 | 199 | 83.5 | 1.2 | 1.41 | 1838 | – | – | – | – | – | 1.5 | 35.4 | 28.2
3 | COc1ccc(Cl)c(C(=O)NCC23CC4CC(CC(F)(C4)C2)C3)c1 [Compound 3, 2-Chloro-N-((3-fluoroadamantan-1-yl)methyl)-5-methoxybenzamide] | 286 | 291 | 57.3 | 1.2 | 0.92 | 1260 | 175 | 178 | 93.4 | 1.2 | 1.8 | 2422 | – | – | – | – | – | 46.9 | 25.8 | 25.8
4 | COc1ccc(Cl)c(C(=O)NCC23CC4CC(CC(C4)C2)C3)c1 [Compound 31, reference compound] | 221 | 246 | 67.8 | 1.2 | 0.77 | 1190 | 186 | 192 | 86.9 | 1.2 | 2.09 | 1696 | 9.6 | 28.2 | – | – | – | 84.4 | – | –

Source: patent US12668568B2, “Adamantanyl-substituted benzamide compounds and their use as P2X7 receptor antagonists” (The University of Sydney, priority 2018, dated 2026)
